Key:
Assay type in all cases: toxicity, cell-based
[1] = MMV: MTT Cytotoxicity Assay Day 7 pi of Assay #10 (NO washout), U87-CD4-CCR5 cells, % cell death @ 5mM compound; conditions: human, u87-cd4-ccr5, 5000 µM
[2] = MMV: MTT Cytotoxicity Assay Day 3 pi, U87-CD4-CXCR4 cells, % cell death @ 5mM compound; conditions: human, u87-cd4-cxcr4, 5000 µM
[3] = MMV: MTT Cytotoxicity Assay Day 7 pi of Assay #11 (NO washout), U87-CD4-CXCR4 cells, % cell death @ 5mM compound; conditions: human, u87-cd4-cxcr4, 5000 µM
[4] = MMV: MTT Cytotoxicity Assay Day 7 pi of Assay #6 (compound washed out Day 1 pi), U87-CD4-CCR5 cells, % cell death @ 5mM compound; conditions: human, u87-cd4-ccr5, 5000 µM
[5] = MMV: MTT Cytotoxicity Assay Day 7 pi of Assay #7 (compound washed out Day 1 pi), U87-CD4-CXCR4 cells, % cell death @ 5mM compound; conditions: human, u87-cd4-cxcr4, 5000 µM
[6] = MMV: MTT Cytotoxicity Assay Day 3 pi, U87-CD4-CCR5 cells, % cell death @ 5mM compound; conditions: human, u87-cd4-ccr5, 5000 µM

SMILES: CN(C)c1ccc(N=Cc2ccc(N3CCOCC3)cc2)cc1
- % Cell Death [1]: 135
- % Cell Death [2]: 100
- % Cell Death [3]: 109
- % Cell Death [4]: 92
- % Cell Death [5]: 97
- % Cell Death [6]: 108

SMILES: CC(C)(C)CC(C)(C)NCC(O)COc1ccc(Cl)cc1Cl (centres undefined)
- % Cell Death [1]: -1
- % Cell Death [2]: 39
- % Cell Death [3]: 8
- % Cell Death [4]: -12
- % Cell Death [5]: -31
- % Cell Death [6]: -7

SMILES: Nc1nc(Nc2cccc(F)c2)nc2ccccc12
- % Cell Death [1]: 45
- % Cell Death [2]: 38
- % Cell Death [3]: 36
- % Cell Death [4]: -19
- % Cell Death [5]: -13
- % Cell Death [6]: 42

SMILES: CCOc1ccc(-c2nc(NC(=O)c3cccc(S(C)(=O)=O)c3)sc2C)cc1
- % Cell Death [1]: 2
- % Cell Death [2]: -6
- % Cell Death [3]: 29
- % Cell Death [4]: 0
- % Cell Death [5]: -38
- % Cell Death [6]: 5

SMILES: Cc1ccc(-c2cc3c(nn2)-c2ccccc2C3=O)cc1
- % Cell Death [1]: 106
- % Cell Death [2]: 57
- % Cell Death [3]: 96
- % Cell Death [4]: 48
- % Cell Death [5]: 58
- % Cell Death [6]: 46

SMILES: CN1C=C(c2ccc3ccccc3n2)C(c2c[nH]c3ccccc23)c2ccccc21 (centres undefined)
- % Cell Death [1]: 161
- % Cell Death [2]: 46
- % Cell Death [3]: 0
- % Cell Death [4]: 13
- % Cell Death [5]: 38
- % Cell Death [6]: 94

SMILES: Cl.Cn1c(=O)n(C)c2cc(CNCCNc3ccnc4cc(Cl)ccc34)ccc21
- % Cell Death [1]: 23
- % Cell Death [2]: 65
- % Cell Death [3]: 45
- % Cell Death [4]: 34
- % Cell Death [5]: 31
- % Cell Death [6]: 46

SMILES: O=C(NC1CCN(Cc2ccccc2)CC1)c1cc(-c2ccncc2)nc2ccc(Cl)cc12
- % Cell Death [1]: 2
- % Cell Death [2]: 31
- % Cell Death [3]: 58
- % Cell Death [4]: -18
- % Cell Death [5]: 8
- % Cell Death [6]: 13

SMILES: CCN(CC)CCNc1ncnc2c1[nH]c1ccc(Br)cc12
- % Cell Death [1]: 15
- % Cell Death [2]: 24
- % Cell Death [3]: -18
- % Cell Death [4]: -1
- % Cell Death [5]: -18
- % Cell Death [6]: -7

SMILES: COc1ccc(CCn2c(=N)c(C(=O)NCc3cccnc3)cc3c(=O)n4cccc(C)c4nc32)cc1
- % Cell Death [1]: 4
- % Cell Death [2]: 15
- % Cell Death [3]: 8
- % Cell Death [4]: 32
- % Cell Death [5]: 35
- % Cell Death [6]: 1

SMILES: Cc1ccc2c(C)nc(Nc3nc(C)cc(-c4ccccc4)n3)nc2c1
- % Cell Death [1]: 114
- % Cell Death [2]: 99
- % Cell Death [3]: 104
- % Cell Death [4]: 98
- % Cell Death [5]: 97
- % Cell Death [6]: 107

SMILES: CCCCCCc1cc2cc(-c3csc(C=Cc4ccccc4)n3)c(=O)oc2cc1O
- % Cell Death [1]: 24
- % Cell Death [2]: 41
- % Cell Death [3]: -36
- % Cell Death [4]: -23
- % Cell Death [5]: -39
- % Cell Death [6]: 35

SMILES: CCN(CC)c1ccc(NC(=O)c2cccs2)cc1
- % Cell Death [1]: 106
- % Cell Death [2]: 56
- % Cell Death [3]: 102
- % Cell Death [4]: 18
- % Cell Death [5]: 43
- % Cell Death [6]: 94

SMILES: CCOC(=O)c1c(C)n(-c2ccccc2)c2ccc(OC(=O)c3cc(OC)c(OC)c(OC)c3)cc12
- % Cell Death [1]: 12
- % Cell Death [2]: 34
- % Cell Death [3]: -19
- % Cell Death [4]: -12
- % Cell Death [5]: 2
- % Cell Death [6]: -4

SMILES: COc1ccc(N2CCN(C(CNC(=O)CC(C)(C)C)c3ccc4c(c3)OCO4)CC2)cc1 (centres undefined)
- % Cell Death [1]: 44
- % Cell Death [2]: 38
- % Cell Death [3]: 37
- % Cell Death [4]: 6
- % Cell Death [5]: 22
- % Cell Death [6]: -2

SMILES: COc1ccc(-n2ccnc2SCC(=O)Nc2cc(C)ccc2C)c(OC)c1
- % Cell Death [1]: 71
- % Cell Death [2]: 54
- % Cell Death [3]: 78
- % Cell Death [4]: 32
- % Cell Death [5]: -16
- % Cell Death [6]: 18

SMILES: O=c1c2c([nH]c3ccccc13)CCCC2
- % Cell Death [1]: -11
- % Cell Death [2]: 33
- % Cell Death [3]: -44
- % Cell Death [4]: 7
- % Cell Death [5]: -18
- % Cell Death [6]: 9

SMILES: CC(C)OCc1cc(CN2CCN(c3cccc(Cl)c3)CC2)c(O)c2ncccc12
- % Cell Death [1]: 125
- % Cell Death [2]: 19
- % Cell Death [3]: 32
- % Cell Death [4]: 19
- % Cell Death [5]: -12
- % Cell Death [6]: 14

SMILES: CCOC(=O)c1cn(CC)c2cc(N3CCCCC3)c(F)cc2c1=O
- % Cell Death [1]: 115
- % Cell Death [2]: 101
- % Cell Death [3]: 103
- % Cell Death [4]: 99
- % Cell Death [5]: 97
- % Cell Death [6]: 106

SMILES: O=C(O)C(=O)O.Oc1ccc(Br)cc1CN1CCN(Cc2cccc(F)c2)CC1
- % Cell Death [1]: 103
- % Cell Death [2]: 101
- % Cell Death [3]: 112
- % Cell Death [4]: 94
- % Cell Death [5]: 86
- % Cell Death [6]: 107

SMILES: CCOc1ccccc1CN1CCc2nc3cc(C(C)(C)C)nn3c(O)c2C1
- % Cell Death [1]: 95
- % Cell Death [2]: 21
- % Cell Death [3]: 98
- % Cell Death [4]: -7
- % Cell Death [5]: 3
- % Cell Death [6]: 100

SMILES: CCc1ccc(Nc2cc(C)c3ccc(O)cc3n2)cc1.Cl
- % Cell Death [1]: 130
- % Cell Death [2]: 101
- % Cell Death [3]: 102
- % Cell Death [4]: 101
- % Cell Death [5]: 95
- % Cell Death [6]: 105

SMILES: COc1cccc(C=Cc2nc(=O)c3ccccc3o2)c1OC
- % Cell Death [1]: 51
- % Cell Death [2]: 54
- % Cell Death [3]: 31
- % Cell Death [4]: 17
- % Cell Death [5]: -19
- % Cell Death [6]: 70

SMILES: COc1ccc(CCN2C(=O)c3[nH]nc(-c4cc(Cl)c(C)cc4O)c3C2c2ccccc2F)cc1 (centres undefined)
- % Cell Death [1]: 47
- % Cell Death [2]: 32
- % Cell Death [3]: -26
- % Cell Death [4]: -35
- % Cell Death [5]: -18
- % Cell Death [6]: 19

SMILES: O=C(NNc1cc(N2CCCC2)nc(N2CCCC2)n1)c1ccccc1
- % Cell Death [1]: 27
- % Cell Death [2]: 29
- % Cell Death [3]: 8
- % Cell Death [4]: 15
- % Cell Death [5]: 53
- % Cell Death [6]: 61

SMILES: COc1ccc2c(c1)C1(Nc3ccccc3-c3nc4ccccc4n31)C(=O)N2 (centres undefined)
- % Cell Death [1]: 29
- % Cell Death [2]: 13
- % Cell Death [3]: 9
- % Cell Death [4]: -9
- % Cell Death [5]: -24
- % Cell Death [6]: -75

SMILES: CC1=C(CC(=O)c2cccc([N+](=O)[O-])c2)C(=O)c2ccccc2C1=O
- % Cell Death [1]: 94
- % Cell Death [2]: 76
- % Cell Death [3]: 106
- % Cell Death [4]: 100
- % Cell Death [5]: 91
- % Cell Death [6]: 92

SMILES: COc1cccc(-c2nn(C)c3sc(C(=O)NCCN4CCN(c5ccccc5F)CC4)cc23)c1
- % Cell Death [1]: 33
- % Cell Death [2]: 64
- % Cell Death [3]: 13
- % Cell Death [4]: 2
- % Cell Death [5]: -4
- % Cell Death [6]: 21

SMILES: Cc1ccc(CN2CCC(C(=O)Nc3ccc(-c4cc5ccccc5[nH]4)cc3)CC2)o1
- % Cell Death [1]: 65
- % Cell Death [2]: 20
- % Cell Death [3]: 22
- % Cell Death [4]: 31
- % Cell Death [5]: 20
- % Cell Death [6]: 33

SMILES: CCc1ccc(CNCC(O)c2ccccc2)cc1.Cl (centres undefined)
- % Cell Death [1]: 2
- % Cell Death [2]: 37
- % Cell Death [3]: 38
- % Cell Death [4]: -3
- % Cell Death [5]: 28
- % Cell Death [6]: -25

SMILES: CCOC(=O)c1c(C)n(-c2ccc(Cl)cc2)c2ccc(OC(=O)C=Cc3ccccc3)cc12
- % Cell Death [1]: 2
- % Cell Death [2]: 26
- % Cell Death [3]: 51
- % Cell Death [4]: 4
- % Cell Death [5]: -5
- % Cell Death [6]: 18

SMILES: CC(C)=CCN1CCC(C(=O)Nc2ccc(-c3nc4ccccc4[nH]3)cc2)CC1
- % Cell Death [1]: 11
- % Cell Death [2]: 22
- % Cell Death [3]: -26
- % Cell Death [4]: 6
- % Cell Death [5]: 4
- % Cell Death [6]: 10

SMILES: Cc1ccc(Nc2nc(NCCO)c3ccccc3n2)cc1C
- % Cell Death [1]: 36
- % Cell Death [2]: 28
- % Cell Death [3]: 12
- % Cell Death [4]: 3
- % Cell Death [5]: -22
- % Cell Death [6]: -23

SMILES: CCOc1ccc(CCNC(=O)c2cccs2)cc1OCC
- % Cell Death [1]: 2
- % Cell Death [2]: 30
- % Cell Death [3]: -9
- % Cell Death [4]: -20
- % Cell Death [5]: -3
- % Cell Death [6]: 45

SMILES: COc1ccc(C(=O)NC(c2ccc(Cl)cc2Cl)c2cc(Cl)c3cccnc3c2O)cc1 (centres undefined)
- % Cell Death [1]: 84
- % Cell Death [2]: 58
- % Cell Death [3]: 102
- % Cell Death [4]: 1
- % Cell Death [5]: 18
- % Cell Death [6]: 42

SMILES: COc1cc(OC)cc(N2C(=O)N(Cc3ccc(C(C)(C)C)cc3)c3ccccc3S2(=O)=O)c1
- % Cell Death [1]: 39
- % Cell Death [2]: 36
- % Cell Death [3]: 64
- % Cell Death [4]: 34
- % Cell Death [5]: -10
- % Cell Death [6]: 34

SMILES: COc1ccccc1N1C(=N)SC(=Cc2ccc(OCc3ccccc3F)cc2)C1=O
- % Cell Death [1]: 30
- % Cell Death [2]: 24
- % Cell Death [3]: 24
- % Cell Death [4]: 23
- % Cell Death [5]: 7
- % Cell Death [6]: 17

SMILES: COc1ccc(C(=O)NC(c2ccccc2Cl)c2cc(Cl)c3cccnc3c2O)cc1 (centres undefined)
- % Cell Death [1]: 11
- % Cell Death [2]: 81
- % Cell Death [3]: 6
- % Cell Death [4]: 23
- % Cell Death [5]: 3
- % Cell Death [6]: 50

SMILES: C=C(C)CCC(C)N1CCC(N2CCC(C(=O)NCCc3ccccc3)CC2)CC1 (centres undefined)
- % Cell Death [1]: 11
- % Cell Death [2]: 3
- % Cell Death [3]: -11
- % Cell Death [4]: 23
- % Cell Death [5]: -27
- % Cell Death [6]: -11
